Results reported in patent US7445764B1, “Carrier-drug conjugate” (priority 1999, dated 2008).

Assays:
[1] = system: RENCA, renal cell carcinoma; settings: female, Balb/c, mouse, in vivo
Excerpt: (§1) Animals: Balb/c mice, female; tumor: RENCA, renal cell carcinoma; therapy: day (d) 10, 14, 18, 21 intravenous (i.v.); end of trial: d 25.
(§2) The dose is relative to the quantity of doxorubicin present.

[2] = system: RENCA, renal cell carcinoma; assay: RENCA (renal cell carcinoma) model, antitumoral action at approximately equitoxic dose; settings: RENCA in Balb/c mice
Excerpt: as §1, §2

[3] = molecular target: HSA-Cys^34-2 (conjugate of DTT-treated human serum albumin with doxorubicin-maleinimide-peptide derivative 2) (UniProt P02768)
Chain of HSA-Cys^34-2 (conjugate of DTT-treated human serum albumin with doxorubicin-maleinimide-peptide derivative 2) (P02768 whole entry, looked up, tested part not stated): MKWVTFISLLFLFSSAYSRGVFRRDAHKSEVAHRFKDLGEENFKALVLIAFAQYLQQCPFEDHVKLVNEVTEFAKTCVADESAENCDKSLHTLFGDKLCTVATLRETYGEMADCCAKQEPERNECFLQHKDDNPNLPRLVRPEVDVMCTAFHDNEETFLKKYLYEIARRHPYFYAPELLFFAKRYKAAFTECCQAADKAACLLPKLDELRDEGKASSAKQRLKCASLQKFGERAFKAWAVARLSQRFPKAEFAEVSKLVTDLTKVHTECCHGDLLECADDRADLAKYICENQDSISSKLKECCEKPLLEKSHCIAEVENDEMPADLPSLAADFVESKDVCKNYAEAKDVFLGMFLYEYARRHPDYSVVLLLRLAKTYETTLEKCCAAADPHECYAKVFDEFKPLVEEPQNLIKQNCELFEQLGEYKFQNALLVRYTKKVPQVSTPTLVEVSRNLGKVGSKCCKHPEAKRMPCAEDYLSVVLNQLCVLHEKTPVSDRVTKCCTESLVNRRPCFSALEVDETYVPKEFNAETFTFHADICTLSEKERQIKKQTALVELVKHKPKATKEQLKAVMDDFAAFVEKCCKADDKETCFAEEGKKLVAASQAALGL

COc1cccc2c1C(=O)c1c(O)c3c(c(O)c1C2=O)C[C@@](O)(C(=O)CO)C[C@@H]3O[C@H]1C[C@H](N)[C@H](O)[C@H](C)O1 [Doxorubicin, doxorubicin]
Mortality (d) [1]: 1
Visible renal tumors ([2]; FIG. 3A): plainly visible renal tumors were observed in all animals
Number of pulmonary metastases, average ([2]; FIG. 3B): ~100 metastases per mouse
Complete remission ([2]; i.v. d 10, 14, 18, 21, end of trial d 25, approximately equitoxic doses): no complete remissions

matrix metalloprotease MMP 9 (trypsine/aprotinine-activated, from Calbiochem, Germany)
liberation of DOXO-Gln-Gly-Ala-Ile due to cleavage with MMP 9 (HPLC gel chromatography, t=0 against t=30 min) [3]: The liberation of DOXO-Gln-Gly-Ala-Ile due to cleavage with MMP 9 was confirmed by HPLC gel chromatography
